As a reminder, the inhibition is the change of the read-out against control, counted positive when it falls.

This is an account of results in patent US8680159B2, “Bradykinin 1 receptor modulating compounds” (Gruenenthal GmbH, priority 2010, dated 2014).

Read-outs that look alike come from different tables or passages of the source.

Assay [1] concerns the target T1, B1R receptor of the rat (CHO K1 cells stably transfected with the B1R gene of the rat) (Rattus norvegicus, UniProt P97583).
T1 construct: expressed in transfected cells; host or cells: CHO K1 cells (Chinese hamster ovary), stably transfected
T1 sequence (P97583 1-337): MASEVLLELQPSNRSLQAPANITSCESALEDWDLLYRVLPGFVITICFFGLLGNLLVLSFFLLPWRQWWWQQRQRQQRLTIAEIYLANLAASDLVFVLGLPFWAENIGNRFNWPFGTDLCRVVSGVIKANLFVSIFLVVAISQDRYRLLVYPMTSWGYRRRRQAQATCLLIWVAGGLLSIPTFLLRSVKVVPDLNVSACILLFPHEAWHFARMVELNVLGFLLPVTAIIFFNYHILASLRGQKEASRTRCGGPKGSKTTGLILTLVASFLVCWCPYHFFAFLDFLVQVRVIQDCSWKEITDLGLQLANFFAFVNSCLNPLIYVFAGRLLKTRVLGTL
Description: Functional study on the bradykinin receptor 1 (B1R), Ca2+ fluorescence (Fluo-4) FLIPR/Novostar assay, rB1R cells. The class given is cell-based. Particulars: for inhibition at 10 µM: CHO-K1, 10 μM. Put shortly:
(§1)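 Stably transfected CHO K1 cells carrying human or rat B1R were Fluo-4 loaded and Ca2+ fluorescence read by FLIPR or Novostar. Compounds were added first at 10 μM for % activation, then the EC80 agonist was applied after 6-20 min (human: Lys-Des-Arg9-bradykinin; rat: Des-Arg9-bradykinin). % inhibition is relative to maximum achievable inhibition, and IC50 comes from concentration series.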

Assay [2] deals with T2, human B1R receptor (CHO K1 cells stably transfected with the human B1R gene) (Homo sapiens, UniProt P46663).
T2 construct: expressed in transfected cells; host or cells: CHO K1 cells (Chinese hamster ovary), stably transfected
T2 sequence (P46663 1-353): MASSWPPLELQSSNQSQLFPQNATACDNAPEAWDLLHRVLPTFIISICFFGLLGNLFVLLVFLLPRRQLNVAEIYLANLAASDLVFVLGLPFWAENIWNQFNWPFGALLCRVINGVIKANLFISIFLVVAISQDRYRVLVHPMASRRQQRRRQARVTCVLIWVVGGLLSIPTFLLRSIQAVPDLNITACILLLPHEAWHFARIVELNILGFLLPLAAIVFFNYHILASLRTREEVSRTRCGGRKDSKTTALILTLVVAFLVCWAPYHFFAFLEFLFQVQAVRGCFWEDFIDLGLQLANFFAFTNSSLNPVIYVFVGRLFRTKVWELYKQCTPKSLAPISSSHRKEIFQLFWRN
Description: Functional study on the bradykinin receptor 1 (B1R), Ca2+ fluorescence (Fluo-4) FLIPR/Novostar assay, hB1R cells. The class given is cell-based. Put shortly:
as §1

[3] abbreviates: read-out: % inhibition (rat B1R) at 10 μM.
[4] abbreviates: CHO-K1, read-out: % inhibition (human B1R) at 10 μM.
[5] abbreviates: read-out: % Inhibition (r-B1R) at 10 μM.
The mark [6] stands for this setting: CHO-K1, read-out: % Inhibition (h-B1R) at 10 μM.

As to `CCN(C(=O)c1ccc2c(c1)[C@H](NC(=O)c1ccccc1Cl)CC2)C1CCN(c2ncnc3nc[nH]c23)CC1` [Example H-156, (3R)-3-[(2-Chloro-benzoyl)amino]-N-ethyl-N-[1-(7H-purin-6-yl)-piperidin-4-yl]-2,3-dihydro-1H-indene-5-carboxylic acid amide], the inhibition at 10 µM stood at 101% in assay [1] (setting [3]) and 90% in assay [2] (setting [4]).

For the compound `CN(C(=O)c1ccc2c(c1)[C@H](NC(=O)Cc1ccccc1)CC2)C1CCN(c2ccncc2)CC1` [Example H-25, (3R)-N-Methyl-3-[(2-phenyl-acetyl)amino]-N-(1-pyridin-4-yl-piperidin-4-yl)-2,3-dihydro-1H-indene-5-carboxylic acid amide], the inhibition at 10 µM in assay [1] (setting [3]) was determined as 96%; in assay [2] (setting [4]), 100%.

Consider `Cc1cc(N2CCC(N(C)C(=O)c3ccc4c(c3)[C@H](NC(=O)c3ccc(F)cc3Cl)CC4)CC2)nc(C)n1` [Example H-165, (3R)-3-[(2-Chloro-4-fluoro-benzoyl)amino]-N-[1-(2,6-dimethyl-pyrimidin-4-yl)-piperidin-4-yl]-N-methyl-2,3-dihydro-1H-indene-5-carboxylic acid amide], for which the results for the inhibition at 10 µM in assay [1] (setting [3]) and in assay [2] (setting [4]) were 105% and 100%, respectively.

Turning to `CN(C(=O)c1ccc2c(c1)[C@H](NC(=O)c1ccccc1Cl)CC2)C1CN(c2ccncc2)C1` [Example H-146, (3R)-3-[(2-Chloro-benzoyl)amino]-N-methyl-N-(1-pyridin-4-yl-azetidin-3-yl)-2,3-dihydro-1H-indene-5-carboxylic acid amide], the inhibition at 10 µM in assay [1] (setting [3]) was 107%; in assay [2] (setting [4]), -1%.

`CN(C(=O)c1ccc2c(c1)C(NC(=O)c1cccc(Cl)c1Cl)CC2(C)C)C1CCN(c2ccncc2)CC1` (stereo not shown) [CC_H-19, 3-[(2,3-Dichloro-benzoyl)amino]-N,1,1-trimethyl-N-(1-pyridin-4-yl-piperidin-4-yl)-2,3-dihydro-indene-5-carboxylic acid amide]: the inhibition at 10 µM in assay [1] (setting [5]) and in assay [2] (setting [6]) was 100% throughout.

Regarding `Cc1cc(N2CCC(N(C)C(=O)c3ccc4c(c3)[C@H](NC(=O)c3cc(F)ccc3Cl)CC4)CC2)nc(C)n1` [Example H-133, (3R)-3-[(2-Chloro-5-fluoro-benzoyl)amino]-N-[1-(2,6-dimethyl-pyrimidin-4-yl)-piperidin-4-yl]-N-methyl-2,3-dihydro-1H-indene-5-carboxylic acid amide], the values for the inhibition at 10 µM in assay [1] (setting [3]) and in assay [2] (setting [4]) were 100% and 99%, respectively.

As to `O=C(NCCC1CCN(c2ccncc2)CC1)c1ccc2c(c1)C(NC(=O)c1ccccc1Cl)CC2` (stereo not shown) [Example H-01, 3-[(2-Chloro-benzoyl)amino]-N-[2-(1-pyridin-4-yl-piperidin-4-yl)-ethyl]-2,3-dihydro-1H-indene-5-carboxylic acid amide], the inhibition at 10 µM in assay [1] (setting [3]) is 102%; in assay [2] (setting [4]), 100%.

As for `Cc1cc(N2CCC(N(C)C(=O)c3ccc4c(c3)[C@H](NC(=O)c3cccc(F)c3Cl)CC4)CC2)nc(C)n1` [Example H-129, (3R)-3-[(2-Chloro-3-fluoro-benzoyl)amino]-N-[1-(2,6-dimethyl-pyrimidin-4-yl)-piperidin-4-yl]-N-methyl-2,3-dihydro-1H-indene-5-carboxylic acid amide], the inhibition at 10 µM in assay [1] (setting [3]) turned out to be 98%; in assay [2] (setting [4]), 100%.

On to `CN(C(=O)c1ccc2c(c1)[C@H](NC(=O)C1(c3ccccc3F)CC1)CC2)C1CCN(c2ccncc2)CC1` [Example H-46, (3R)-3-[[1-(2-Fluorophenyl)-cyclopropanecarbonyl]amino]-N-methyl-N-(1-pyridin-4-yl-piperidin-4-yl)-2,3-dihydro-1H-indene-5-carboxylic acid amide], for which the inhibition at 10 µM stood at 103% in assay [1] (setting [3]) and 100% in assay [2] (setting [4]).

Regarding `CN(C)c1nccc(N2CCC(N(C)C(=O)c3ccc4c(c3)[C@H](N(C)C(=O)CCC3CCCC3)CC4)CC2)n1` [Example H-186, (3R)-3-(3-Cyclopentyl-propanoyl-methyl-amino)-N-[1-(2-dimethylamino-pyrimidin-4-yl)-piperidin-4-yl]-N-methyl-2,3-dihydro-1H-indene-5-carboxylic acid amide], the inhibition at 10 µM was found to be 103% in assay [1] (setting [3]) and 99% in assay [2] (setting [4]).

With `CN(C(=O)c1ccc2c(c1)[C@H](NC(=O)c1cncnc1)CC2)C1CCN(c2ccncc2)CC1` [Example H-31, N-[(1R)-6-[Methyl-(1-pyridin-4-yl-piperidin-4yl)carbamoyl]-2,3-dihydro-1H-inden-1-yl]-pyrimidine-5-carboxylic acid amide], the inhibition at 10 µM in assay [1] (setting [3]) came to 70%; in assay [2] (setting [4]) it was 100%.

With `Cc1cc(N2CCC(CN(C)C(=O)c3ccc4c(c3)CC[C@H]4N3Cc4cccc(Cl)c4C3=O)CC2)ccn1` [Example H-52, (1R)-1-(4-Chloro-3-oxo-1,2-dihydro-isoindol-2-yl)-N-methyl-N-[[1-(2-methyl-pyridin-4-yl)-piperidin-4-yl]-methyl]-2,3-dihydro-1H-indene-5-carboxylic acid amide], the results for the inhibition at 10 µM in assay [1] (setting [3]) and in assay [2] (setting [4]) were 73% and 98%, respectively.

`CN(C(=O)c1ccc2c(c1)CC[C@H]2N1Cc2cccc(Cl)c2C1=O)C1CCN(c2ccncc2)CC1` [Example H-11, (1R)-1-(4-Chloro-3-oxo-1,2-dihydro-isoindol-2-yl)-N-methyl-N-(1-pyridin-4-yl-piperidin-4-yl)-2,3-dihydro-1H-indene-5-carboxylic acid amide]: the inhibition at 10 µM stood at 49% in assay [1] (setting [3]) and 99% in assay [2] (setting [4]).

As for `Cc1cc(N2CCC(N(C)C(=O)c3cc4c(cc3F)[C@H](NC(=O)c3ccccc3Cl)CC4)CC2)nc(C)n1` [Example H-151, (1R)-1-[(2-Chloro-benzoyl)amino]-N-[1-(2,6-dimethyl-pyrimidin-4-yl)-piperidin-4-yl]-6-fluoro-N-methyl-2,3-dihydro-1H-indene-5-carboxylic acid amide], the inhibition at 10 µM is 96% in assay [1] (setting [3]) and 100% in assay [2] (setting [4]).

On to `CN(C(=O)c1ccc2c(c1)C(NS(=O)(=O)c1c(Cl)cccc1C(F)(F)F)CCC2)C1CCN(c2ccncc2)CC1` (stereo not shown) [CC_H-16, 8-[[[2-Chloro-6-(trifluoromethyl)-phenyl]sulfonyl]amino]-N-methyl-N-(1-pyridin-4-yl-piperidin-4-yl)-5,6,7,8-tetrahydro-naphthalene-2-carboxylic acid amide], for which the inhibition at 10 µM is 104% in assay [1] (setting [5]) and 99% in assay [2] (setting [6]).

Turning to `CN1CCN(C2CCC(NC(=O)c3ccc4c(c3)[C@H](NC(=O)c3ccccc3Cl)CC4)C(C)(C)C2)CC1` (stereo partly drawn) [Example H-14, (3R)-3-[(2-Chloro-benzoyl)amino]-N-[2,2-dimethyl-4-(4-methyl-piperazin-l-yl)-cyclohexyl]-2,3-dihydro-1H-indene-5-carboxylic acid amide], the “% inhibition (rat B1R) at 10 μM” value in assay [1] (10 μM) was 76%. In addition, the “% inhibition (human B1R) at 10 μM” value in assay [2] is recorded as 64%.

With `CN(CC1CCN(c2ccncc2)CC1)C(=O)c1ccc2c(c1)[C@H](NC(=O)c1ccccc1Cl)CC2` [Example H-64, (3R)-3-[(2-Chloro-benzoyl)amino]-N-methyl-N-[(1-pyridin-4-yl-piperidin-4-yl)-methyl]-2,3-dihydro-1H-indene-5-carboxylic acid amide], the inhibition at 10 µM in assay [1] (setting [3]) was 97%; in assay [2] (setting [4]) it was 96%.

As for `Cc1cc(N2CCC(N(C)C(=O)c3ccc4c(c3)[C@H](N(C)C(=O)c3ccccc3C)CC4)CC2)nc(C)n1` [Example H-169, (3R)-N-[1-(2,6-Dimethyl-pyrimidin-4-yl)-piperidin-4-yl]-N-methyl-3-[methyl-(2-methyl-benzoyl)-amino]-2,3-dihydro-1H-indene-5-carboxylic acid amide], the inhibition at 10 µM was determined as 106% in assay [1] (setting [3]) and 100% in assay [2] (setting [4]).

Turning to `CN(C(=O)c1ccc2c(c1)[C@H](NC(=O)c1ccccc1Cl)CC2)C1CCC(c2ccncc2)CC1` (stereo partly drawn) [Example H-61, (3R)-3-[(2-Chloro-benzoyl)amino]-N-methyl-N-(4-pyridin-4-yl-cyclohexyl)-2,3-dihydro-1H-indene-5-carboxylic acid amide], the inhibition at 10 µM turned out to be 77% in assay [1] (setting [3]) and 32% in assay [2] (setting [4]).

Take `CN(C(=O)c1ccc2c(c1)[C@H](NC(=O)C(C)(C)c1ccccc1Cl)CC2)C1CCN(c2ccncc2)CC1` [Example H-58, (3R)-3-[[2-(2-Chlorophenyl)-2-methyl-propanoyl]amino]-N-methyl-N-(1-pyridin-4-yl-piperidin-4-yl)-2,3-dihydro-1H-indene-5-carboxylic acid amide]: the results for the inhibition at 10 µM in assay [1] (setting [3]) and in assay [2] (setting [4]) were 98% and 100%, respectively.
